Where two headings read alike, the source gives them in different places.
Tests used:
[1] = target: T1, Alpha-2A adrenergic receptor, ADRA2A (h) (Homo sapiens, UniProt P08913); conditions: IPP screening at 10 uM; control yohimbine
T1 sequence (P08913 1-465): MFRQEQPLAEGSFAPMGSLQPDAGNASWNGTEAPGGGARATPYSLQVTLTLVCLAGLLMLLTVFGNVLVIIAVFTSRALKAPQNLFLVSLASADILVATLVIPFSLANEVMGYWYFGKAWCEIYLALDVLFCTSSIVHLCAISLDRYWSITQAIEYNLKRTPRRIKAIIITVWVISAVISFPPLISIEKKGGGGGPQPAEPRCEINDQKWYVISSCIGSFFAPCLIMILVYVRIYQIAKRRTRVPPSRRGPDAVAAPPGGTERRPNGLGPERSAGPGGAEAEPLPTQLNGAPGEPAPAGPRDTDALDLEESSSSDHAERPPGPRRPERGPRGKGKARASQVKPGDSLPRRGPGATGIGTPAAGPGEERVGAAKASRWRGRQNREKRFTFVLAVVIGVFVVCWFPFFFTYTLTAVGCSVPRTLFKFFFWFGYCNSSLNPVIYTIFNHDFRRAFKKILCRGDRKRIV

[2] = target: cAMP-specific 3',5'-cyclic phosphodiesterase 4D, PDE4D (h) (Homo sapiens, UniProt Q08499); assay: IPP PDE4D enzymatic activity; assay type: biochemical; conditions: IPP screening at 10 uM; control Ro 20-1724
[3] = target: Dopamine receptor D2, DRD2 (h) (Homo sapiens, UniProt P14416); conditions: IPP screening at 10 uM; control 7-OH-DPAT
HepG2 cells = assay: High-throughput transcriptomics (HTTr, TempO-Seq), HepG2, 24 h; assay type: cell-based, human; conditions: HepG2; for pod_httr_bifrost PoD: HTTr BIFROST PoD; for podl_path_minbmd PoD: HTTr minimum pathway BMD(L)
Method: (§1) HepG2, HepaRG, and MCF7 cells were treated with each compound for 24 h across a dose range of 7 concentrations and lysed using TempO-Seq lysis buffer (BioSpyder Technologies, proprietary kit, see [Middleton et al. 2022] for method details). Sequencing was performed using TempO-Seq (BioClavis) version 2 of the human whole transcriptome panel and analyzed as described previously in Middleton et al.

[4] = target: T2, Angiotensin II receptor Type-1, AGTR1 (h) (Homo sapiens, UniProt P30556); assay: IPP AGTR1 binding; conditions: 10 uM; ligand/control Saralasin
T2 construct: purchased Eurofins Cerep (SafetyScreen44-based IPP panel)
T2 sequence (P30556 1-359): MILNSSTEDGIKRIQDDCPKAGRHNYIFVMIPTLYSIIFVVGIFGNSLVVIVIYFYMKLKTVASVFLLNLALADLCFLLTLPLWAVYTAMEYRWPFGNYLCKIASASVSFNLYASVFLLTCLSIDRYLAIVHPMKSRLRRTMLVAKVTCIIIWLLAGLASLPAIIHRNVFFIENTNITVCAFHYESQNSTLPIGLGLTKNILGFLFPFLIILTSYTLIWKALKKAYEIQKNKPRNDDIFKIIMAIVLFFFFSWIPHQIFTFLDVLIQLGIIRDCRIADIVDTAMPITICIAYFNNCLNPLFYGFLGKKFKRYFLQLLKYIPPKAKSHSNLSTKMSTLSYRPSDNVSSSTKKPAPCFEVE

Tubulin (r) = assay: IPP Tubulin binding; design: species or system rat; conditions: 10 uM; ligand/control Colchicine
[5] = target: Kappa-type opioid receptor OPRK1 (h) (Homo sapiens, UniProt P41145); conditions: IPP screening at 10 uM; control U 50488
HepaRG cells = assay: High-throughput transcriptomics (HTTr, TempO-Seq), HepaRG, 24 h; assay type: cell-based, human; conditions: HepaRG; for pod_httr_bifrost PoD: HTTr BIFROST PoD; for podl_path_minbmd PoD: HTTr minimum pathway BMD(L)
Method: as §1

[6] = tested on: Sodium channel protein type 5 subunit alpha (site 2), SCN5A (r); assay type: binding, rat
[7] = target: Histamine H1 receptor, HRH1 (h) (Homo sapiens, UniProt P35367); assay: IPP HRH1 binding (antagonist radioligand); conditions: IPP screening at 10 uM; control pyrilamine
[8] = target: Neuronal acetylcholine receptor subunit alpha-4, CHRNA4 (h) (Homo sapiens, UniProt P17787+P43681); conditions: IPP screening at 10 uM; control nicotine
[9] = target: Acetylcholinesterase, ACHE (h) (Homo sapiens, UniProt P22303); assay type: biochemical; conditions: IPP screening at 10 uM; control galanthamine
[10] = target: Cannabinoid receptor 1, CNR1 (h) (Homo sapiens, UniProt P21554); assay type: binding; conditions: IPP screening at 10 uM; control CP 55940
[11] = target: T3, Muscarinic acetylcholine receptor M3, CHRM3 (h) (Homo sapiens, UniProt P20309); assay type: binding; conditions: 10 uM; ligand/control 4-DAMP
T3 construct: purchased Eurofins Cerep (SafetyScreen44-based IPP panel)

[12] = target: T4, Alpha-1A adrenergic receptor, ADRA1A (h) (Homo sapiens, UniProt P35348); conditions: IPP screening at 10 uM; control WB 4101
T4 sequence (P35348 1-466): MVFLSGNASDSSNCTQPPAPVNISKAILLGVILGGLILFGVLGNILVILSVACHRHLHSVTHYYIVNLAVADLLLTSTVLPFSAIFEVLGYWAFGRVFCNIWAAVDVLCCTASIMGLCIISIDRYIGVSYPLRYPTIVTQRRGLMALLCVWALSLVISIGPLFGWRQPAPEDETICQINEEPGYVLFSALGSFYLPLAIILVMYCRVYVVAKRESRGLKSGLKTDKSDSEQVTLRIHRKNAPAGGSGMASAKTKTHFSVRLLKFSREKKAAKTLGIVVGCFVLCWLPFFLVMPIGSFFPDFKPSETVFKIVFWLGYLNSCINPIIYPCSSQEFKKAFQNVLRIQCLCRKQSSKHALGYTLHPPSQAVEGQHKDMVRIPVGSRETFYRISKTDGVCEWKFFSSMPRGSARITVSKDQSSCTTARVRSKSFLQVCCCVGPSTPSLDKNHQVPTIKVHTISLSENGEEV

[13] = target: Sodium-dependent noradrenaline transporter, SLC6A2 (h) (Homo sapiens, UniProt P23975); conditions: 10 uM; ligand/control protriptyline
[14] = target: Histamine H2 receptor, HRH2 (h) (Homo sapiens, UniProt P25021); assay: IPP HRH2 binding (antagonist radioligand); conditions: IPP screening at 10 uM; control cimetidine
Histamine H2 receptor, HRH2 (h), sequence (P25021 whole entry): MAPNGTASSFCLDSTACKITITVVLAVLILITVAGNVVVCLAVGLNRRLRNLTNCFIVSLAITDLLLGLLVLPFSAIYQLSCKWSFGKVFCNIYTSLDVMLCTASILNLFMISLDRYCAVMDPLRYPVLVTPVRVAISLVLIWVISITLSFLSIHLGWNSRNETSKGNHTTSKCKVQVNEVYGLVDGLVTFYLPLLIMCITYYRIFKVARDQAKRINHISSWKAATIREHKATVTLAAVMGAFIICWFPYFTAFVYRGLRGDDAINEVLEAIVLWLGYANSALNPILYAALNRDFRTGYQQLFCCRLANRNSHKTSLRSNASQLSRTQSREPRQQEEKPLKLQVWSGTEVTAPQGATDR

Sodium-dependent noradrenaline transporter, SLC6A2 (h), sequence (P23975 whole entry): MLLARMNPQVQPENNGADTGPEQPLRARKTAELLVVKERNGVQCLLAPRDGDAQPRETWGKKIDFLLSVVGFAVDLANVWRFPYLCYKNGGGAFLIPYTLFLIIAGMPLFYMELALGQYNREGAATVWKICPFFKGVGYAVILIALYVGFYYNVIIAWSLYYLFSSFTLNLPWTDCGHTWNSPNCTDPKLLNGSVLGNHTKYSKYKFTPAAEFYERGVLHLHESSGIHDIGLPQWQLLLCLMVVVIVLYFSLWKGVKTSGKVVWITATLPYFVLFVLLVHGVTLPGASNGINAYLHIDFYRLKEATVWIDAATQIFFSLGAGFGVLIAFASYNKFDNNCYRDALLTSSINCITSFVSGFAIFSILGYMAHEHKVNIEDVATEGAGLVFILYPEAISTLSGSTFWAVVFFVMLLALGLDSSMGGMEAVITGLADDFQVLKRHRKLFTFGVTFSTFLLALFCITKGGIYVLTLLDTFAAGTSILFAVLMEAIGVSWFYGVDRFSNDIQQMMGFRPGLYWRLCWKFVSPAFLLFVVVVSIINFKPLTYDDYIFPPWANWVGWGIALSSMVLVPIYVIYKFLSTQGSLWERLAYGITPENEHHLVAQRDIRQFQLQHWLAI
T3 sequence (P20309 whole entry): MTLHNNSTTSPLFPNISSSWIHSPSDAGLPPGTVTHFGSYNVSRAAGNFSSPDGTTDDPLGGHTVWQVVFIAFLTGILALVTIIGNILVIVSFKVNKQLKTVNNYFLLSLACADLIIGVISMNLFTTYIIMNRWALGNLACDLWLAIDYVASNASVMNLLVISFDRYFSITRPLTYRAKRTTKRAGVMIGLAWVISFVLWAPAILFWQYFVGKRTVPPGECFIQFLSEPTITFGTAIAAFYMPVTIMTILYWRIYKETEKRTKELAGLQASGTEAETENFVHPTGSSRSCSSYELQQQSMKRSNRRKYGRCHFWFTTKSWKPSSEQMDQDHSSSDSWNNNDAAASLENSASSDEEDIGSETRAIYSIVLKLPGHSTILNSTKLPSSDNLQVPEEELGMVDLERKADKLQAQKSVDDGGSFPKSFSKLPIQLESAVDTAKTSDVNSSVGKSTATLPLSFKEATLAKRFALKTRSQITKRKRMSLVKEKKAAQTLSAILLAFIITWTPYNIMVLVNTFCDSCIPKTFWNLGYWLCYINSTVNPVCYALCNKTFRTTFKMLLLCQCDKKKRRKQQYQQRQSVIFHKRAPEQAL
Acetylcholinesterase, ACHE (h), sequence (P22303 32-614): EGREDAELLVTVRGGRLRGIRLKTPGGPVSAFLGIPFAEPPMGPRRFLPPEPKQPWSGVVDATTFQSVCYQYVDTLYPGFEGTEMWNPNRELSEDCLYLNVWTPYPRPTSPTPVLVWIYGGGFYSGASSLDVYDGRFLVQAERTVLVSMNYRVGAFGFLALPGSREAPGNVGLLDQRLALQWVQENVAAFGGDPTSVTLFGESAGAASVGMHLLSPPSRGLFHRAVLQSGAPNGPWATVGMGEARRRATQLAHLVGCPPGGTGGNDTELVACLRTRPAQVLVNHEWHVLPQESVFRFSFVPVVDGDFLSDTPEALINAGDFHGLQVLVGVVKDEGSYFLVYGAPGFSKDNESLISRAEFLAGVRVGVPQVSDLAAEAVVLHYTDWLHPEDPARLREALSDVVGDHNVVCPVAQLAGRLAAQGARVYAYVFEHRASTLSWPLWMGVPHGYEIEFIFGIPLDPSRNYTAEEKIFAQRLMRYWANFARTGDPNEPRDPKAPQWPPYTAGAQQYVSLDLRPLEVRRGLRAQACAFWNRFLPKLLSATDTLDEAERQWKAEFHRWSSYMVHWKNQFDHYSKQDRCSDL
Histamine H1 receptor, HRH1 (h), sequence (P35367 whole entry): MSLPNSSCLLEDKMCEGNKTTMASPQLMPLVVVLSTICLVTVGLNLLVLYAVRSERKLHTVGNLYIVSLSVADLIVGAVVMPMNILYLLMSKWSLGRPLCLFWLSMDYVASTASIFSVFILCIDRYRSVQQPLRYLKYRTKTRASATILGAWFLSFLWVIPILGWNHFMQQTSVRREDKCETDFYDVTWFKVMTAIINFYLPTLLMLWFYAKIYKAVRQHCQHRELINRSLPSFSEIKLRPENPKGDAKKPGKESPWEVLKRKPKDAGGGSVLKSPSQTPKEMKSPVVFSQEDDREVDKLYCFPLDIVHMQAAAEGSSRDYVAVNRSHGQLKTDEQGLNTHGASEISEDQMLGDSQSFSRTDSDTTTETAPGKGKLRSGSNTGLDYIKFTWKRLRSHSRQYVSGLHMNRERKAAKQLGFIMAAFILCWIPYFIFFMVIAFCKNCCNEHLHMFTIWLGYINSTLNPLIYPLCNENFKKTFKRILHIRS
Cannabinoid receptor 1, CNR1 (h), sequence (P21554 whole entry): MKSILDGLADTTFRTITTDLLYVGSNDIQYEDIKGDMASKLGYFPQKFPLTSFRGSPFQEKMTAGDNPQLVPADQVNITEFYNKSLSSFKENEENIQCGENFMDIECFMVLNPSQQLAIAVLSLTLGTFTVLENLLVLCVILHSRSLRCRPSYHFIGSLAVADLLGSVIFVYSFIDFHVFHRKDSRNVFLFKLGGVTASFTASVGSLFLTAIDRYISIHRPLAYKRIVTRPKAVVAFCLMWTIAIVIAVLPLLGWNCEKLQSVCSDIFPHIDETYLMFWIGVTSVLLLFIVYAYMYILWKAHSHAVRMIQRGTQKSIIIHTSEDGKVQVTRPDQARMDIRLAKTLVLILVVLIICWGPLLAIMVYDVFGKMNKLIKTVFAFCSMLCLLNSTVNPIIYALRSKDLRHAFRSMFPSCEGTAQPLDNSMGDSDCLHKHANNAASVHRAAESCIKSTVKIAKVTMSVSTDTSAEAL
Dopamine receptor D2, DRD2 (h), sequence (P14416 whole entry): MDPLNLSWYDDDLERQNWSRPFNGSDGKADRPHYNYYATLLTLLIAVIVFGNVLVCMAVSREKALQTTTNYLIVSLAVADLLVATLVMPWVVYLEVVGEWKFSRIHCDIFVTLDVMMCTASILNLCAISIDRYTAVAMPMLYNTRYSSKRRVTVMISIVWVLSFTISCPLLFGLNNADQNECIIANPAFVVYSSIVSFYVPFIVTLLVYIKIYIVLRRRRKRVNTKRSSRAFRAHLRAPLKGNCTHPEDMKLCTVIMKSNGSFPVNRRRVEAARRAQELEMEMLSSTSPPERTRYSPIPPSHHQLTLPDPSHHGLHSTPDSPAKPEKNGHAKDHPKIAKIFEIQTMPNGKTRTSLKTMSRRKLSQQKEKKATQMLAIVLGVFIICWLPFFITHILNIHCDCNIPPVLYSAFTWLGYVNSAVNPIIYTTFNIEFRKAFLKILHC
Kappa-type opioid receptor OPRK1 (h), sequence (P41145 whole entry): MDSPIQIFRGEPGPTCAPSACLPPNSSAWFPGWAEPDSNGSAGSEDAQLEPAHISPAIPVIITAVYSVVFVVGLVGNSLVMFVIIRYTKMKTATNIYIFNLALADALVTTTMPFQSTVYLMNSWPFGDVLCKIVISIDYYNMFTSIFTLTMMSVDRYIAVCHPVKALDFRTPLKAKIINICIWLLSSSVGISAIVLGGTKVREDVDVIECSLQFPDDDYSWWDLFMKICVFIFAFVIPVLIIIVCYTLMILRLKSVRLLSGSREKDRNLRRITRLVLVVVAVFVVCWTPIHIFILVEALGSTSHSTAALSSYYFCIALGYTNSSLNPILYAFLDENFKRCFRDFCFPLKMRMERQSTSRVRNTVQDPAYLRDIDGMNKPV
cAMP-specific 3',5'-cyclic phosphodiesterase 4D, PDE4D (h), sequence (Q08499 whole entry): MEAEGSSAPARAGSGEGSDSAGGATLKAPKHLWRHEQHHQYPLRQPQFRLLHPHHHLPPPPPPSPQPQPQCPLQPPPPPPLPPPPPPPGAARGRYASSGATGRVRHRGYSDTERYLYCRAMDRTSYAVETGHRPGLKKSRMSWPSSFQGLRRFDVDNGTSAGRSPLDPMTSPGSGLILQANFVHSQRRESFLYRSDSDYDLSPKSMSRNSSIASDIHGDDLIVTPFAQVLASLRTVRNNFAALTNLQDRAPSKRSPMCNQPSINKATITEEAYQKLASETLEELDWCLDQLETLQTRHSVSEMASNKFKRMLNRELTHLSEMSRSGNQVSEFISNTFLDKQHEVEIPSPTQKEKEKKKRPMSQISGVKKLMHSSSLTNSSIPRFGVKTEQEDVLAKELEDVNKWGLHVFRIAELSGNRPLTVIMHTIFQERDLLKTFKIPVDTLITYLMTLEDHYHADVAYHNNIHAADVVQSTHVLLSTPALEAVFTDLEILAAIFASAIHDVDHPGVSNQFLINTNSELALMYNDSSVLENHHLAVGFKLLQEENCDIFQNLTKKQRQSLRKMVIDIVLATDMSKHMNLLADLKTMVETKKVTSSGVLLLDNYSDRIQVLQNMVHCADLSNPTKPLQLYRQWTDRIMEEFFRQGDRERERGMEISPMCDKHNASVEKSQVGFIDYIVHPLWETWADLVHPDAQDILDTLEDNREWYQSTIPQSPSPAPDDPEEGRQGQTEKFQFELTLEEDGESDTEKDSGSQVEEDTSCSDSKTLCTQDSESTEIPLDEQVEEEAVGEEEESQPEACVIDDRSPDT

Structure (SMILES)	Specific binding [1]	Enzymatic activity [2]	Specific binding [3]	pod_httr_bifrost PoD (HepG2 cells)	podl_path_minbmd PoD (HepG2 cells)	IPP screening %, Specific binding [4]	IPP screening %, Specific binding (Tubulin (r))	Specific binding [5]	pod_httr_bifrost PoD (HepaRG cells)	podl_path_minbmd PoD (HepaRG cells)	Specific binding [6]	Specific binding [7]	Specific binding [8]	Enzymatic activity [9]	Specific binding [10]	IPP screening %, Specific binding [11]	Specific binding [12]	IPP screening %, Specific binding [13]	Specific binding [14]	Specific binding ([6]; IPP screening at 10 uM, control veratridine)
CCOP(=S)(OCC)Oc1nc(Cl)c(Cl)cc1Cl [Chlorpyrifos, O,O-Diethyl O-(3,5,6-trichloropyridin-2-yl) phosphorothioate]	-3.7%	51.8%	12.6%	0.000303 µM	2.42 µM	0.5%	-20.0%	27.7%	0.07063 µM	1.957 µM	13.4%	17.6%	-6.9%	-10.5%	26.0%	5.8%	5.4%	63.4%	-62.6%	–
CC(C)(C)c1ccc(CCOc2ncnc3ccccc23)cc1 [Fenazaquin, 4-[2-(4-tert-Butylphenyl)ethoxy]quinazoline]	5.2%	14.7%	16.5%	0.0002567 µM	0.002178 µM	8.6%	-2.0%	56.7%	0.006087 µM	0.07466 µM	–	37.0%	-6.4%	-0.7%	57.0%	11.5%	35.8%	69.3%	-38.6%	39.5%

Reference: PMC11879040, “Advancing systemic toxicity risk assessment: Evaluation of a NAM-based toolbox approach” (Toxicological Sciences, 2024)
